For orientation: IC50 means the concentration at which inhibition is half-maximal. A lower IC50 goes with inhibition by little substance.

“And” between values parts separate entries of the source, which are not always exact repeats. Equal values may be shown once.

Targets include RPS6KA1 (Homo sapiens, UniProt Q15418); PRKAA1 (Homo sapiens, UniProt Q13131); MINK1 (Homo sapiens, UniProt Q8N4C8); BMPR1A (Homo sapiens, UniProt P36894); MAPK6 (Homo sapiens, UniProt Q16659).
Experiment in all cases: biochemical
The next experiment addresses T1, IKBKE (Homo sapiens, UniProt Q14164).
T1 sequence (Q14164 1-716): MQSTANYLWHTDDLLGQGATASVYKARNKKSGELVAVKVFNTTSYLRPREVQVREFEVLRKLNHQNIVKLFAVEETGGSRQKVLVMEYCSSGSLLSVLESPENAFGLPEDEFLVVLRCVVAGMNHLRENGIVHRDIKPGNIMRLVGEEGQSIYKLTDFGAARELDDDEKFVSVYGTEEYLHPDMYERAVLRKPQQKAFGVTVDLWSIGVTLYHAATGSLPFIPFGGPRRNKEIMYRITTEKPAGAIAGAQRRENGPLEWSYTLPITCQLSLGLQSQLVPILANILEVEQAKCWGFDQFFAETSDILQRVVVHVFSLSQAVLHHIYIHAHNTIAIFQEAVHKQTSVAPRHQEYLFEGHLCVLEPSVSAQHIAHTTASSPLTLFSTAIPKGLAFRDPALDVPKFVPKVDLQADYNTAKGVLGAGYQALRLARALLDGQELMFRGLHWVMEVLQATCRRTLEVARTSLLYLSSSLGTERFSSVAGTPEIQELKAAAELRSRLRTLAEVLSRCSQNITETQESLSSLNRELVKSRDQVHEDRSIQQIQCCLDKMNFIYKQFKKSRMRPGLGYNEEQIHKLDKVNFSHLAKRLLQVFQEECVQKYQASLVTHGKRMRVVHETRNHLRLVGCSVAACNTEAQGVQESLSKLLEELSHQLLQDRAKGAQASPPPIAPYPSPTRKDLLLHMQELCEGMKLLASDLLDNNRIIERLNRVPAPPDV

In the next experiment the target is T2, ULK1 (Homo sapiens, UniProt O75385).
T2 sequence (O75385 1-1050): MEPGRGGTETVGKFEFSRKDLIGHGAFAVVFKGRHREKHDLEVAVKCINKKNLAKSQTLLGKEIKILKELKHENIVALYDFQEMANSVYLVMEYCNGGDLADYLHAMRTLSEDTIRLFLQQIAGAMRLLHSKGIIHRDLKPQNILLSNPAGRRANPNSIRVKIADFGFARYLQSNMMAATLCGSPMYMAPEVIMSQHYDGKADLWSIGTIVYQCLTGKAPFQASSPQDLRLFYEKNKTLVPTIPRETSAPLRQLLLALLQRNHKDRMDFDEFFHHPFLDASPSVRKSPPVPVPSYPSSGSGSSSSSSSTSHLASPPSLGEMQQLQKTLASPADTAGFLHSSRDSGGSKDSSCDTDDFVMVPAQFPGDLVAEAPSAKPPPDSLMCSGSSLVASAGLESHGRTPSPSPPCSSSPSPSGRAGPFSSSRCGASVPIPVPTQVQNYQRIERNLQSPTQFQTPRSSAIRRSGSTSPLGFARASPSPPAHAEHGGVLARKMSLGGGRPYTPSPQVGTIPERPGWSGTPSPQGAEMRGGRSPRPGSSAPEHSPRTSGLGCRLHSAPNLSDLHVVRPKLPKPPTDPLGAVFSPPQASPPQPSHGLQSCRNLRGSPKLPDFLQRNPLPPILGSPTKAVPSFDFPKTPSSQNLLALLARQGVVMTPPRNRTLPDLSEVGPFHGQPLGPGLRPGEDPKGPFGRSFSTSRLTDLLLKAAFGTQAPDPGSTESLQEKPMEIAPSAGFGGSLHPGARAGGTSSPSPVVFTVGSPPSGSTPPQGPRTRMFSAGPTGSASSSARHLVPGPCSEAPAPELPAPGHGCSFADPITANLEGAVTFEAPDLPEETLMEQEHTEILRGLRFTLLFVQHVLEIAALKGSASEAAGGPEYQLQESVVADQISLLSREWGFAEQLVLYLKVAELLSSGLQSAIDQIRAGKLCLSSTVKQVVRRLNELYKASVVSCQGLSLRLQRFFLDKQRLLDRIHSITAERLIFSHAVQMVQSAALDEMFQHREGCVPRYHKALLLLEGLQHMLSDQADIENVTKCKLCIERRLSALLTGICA

The next experiment deals with T3, PIP4K2C (Homo sapiens, UniProt Q8TBX8).
T3 sequence (Q8TBX8 1-421): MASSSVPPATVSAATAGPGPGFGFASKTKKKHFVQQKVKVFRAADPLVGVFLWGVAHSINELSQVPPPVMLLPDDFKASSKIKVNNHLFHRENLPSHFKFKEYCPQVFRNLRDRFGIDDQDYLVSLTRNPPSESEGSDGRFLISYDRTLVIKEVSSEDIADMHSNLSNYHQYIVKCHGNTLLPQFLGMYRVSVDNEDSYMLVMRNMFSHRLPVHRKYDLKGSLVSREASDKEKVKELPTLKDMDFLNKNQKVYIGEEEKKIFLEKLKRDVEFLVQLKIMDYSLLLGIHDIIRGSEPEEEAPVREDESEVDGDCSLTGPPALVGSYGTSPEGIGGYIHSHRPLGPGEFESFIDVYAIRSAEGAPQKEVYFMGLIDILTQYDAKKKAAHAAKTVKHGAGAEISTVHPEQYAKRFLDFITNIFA

The next experiment concerns the target T4, MAPKAPK5 (Homo sapiens, UniProt Q8IW41).
T4 sequence (Q8IW41 1-473): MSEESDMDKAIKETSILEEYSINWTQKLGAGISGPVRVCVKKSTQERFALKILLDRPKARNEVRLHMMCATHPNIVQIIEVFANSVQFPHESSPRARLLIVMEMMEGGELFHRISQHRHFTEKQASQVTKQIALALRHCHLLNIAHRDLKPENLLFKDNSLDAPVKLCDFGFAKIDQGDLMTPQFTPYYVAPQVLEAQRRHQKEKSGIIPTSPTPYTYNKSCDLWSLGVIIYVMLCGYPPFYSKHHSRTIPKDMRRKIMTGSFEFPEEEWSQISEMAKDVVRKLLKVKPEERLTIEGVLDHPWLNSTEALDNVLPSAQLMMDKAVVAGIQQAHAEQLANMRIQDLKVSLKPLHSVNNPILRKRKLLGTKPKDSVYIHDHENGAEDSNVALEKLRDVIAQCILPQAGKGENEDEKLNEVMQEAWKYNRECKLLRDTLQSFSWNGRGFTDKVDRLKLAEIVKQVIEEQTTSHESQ

PRKAA1, sequence (Q13131 whole entry): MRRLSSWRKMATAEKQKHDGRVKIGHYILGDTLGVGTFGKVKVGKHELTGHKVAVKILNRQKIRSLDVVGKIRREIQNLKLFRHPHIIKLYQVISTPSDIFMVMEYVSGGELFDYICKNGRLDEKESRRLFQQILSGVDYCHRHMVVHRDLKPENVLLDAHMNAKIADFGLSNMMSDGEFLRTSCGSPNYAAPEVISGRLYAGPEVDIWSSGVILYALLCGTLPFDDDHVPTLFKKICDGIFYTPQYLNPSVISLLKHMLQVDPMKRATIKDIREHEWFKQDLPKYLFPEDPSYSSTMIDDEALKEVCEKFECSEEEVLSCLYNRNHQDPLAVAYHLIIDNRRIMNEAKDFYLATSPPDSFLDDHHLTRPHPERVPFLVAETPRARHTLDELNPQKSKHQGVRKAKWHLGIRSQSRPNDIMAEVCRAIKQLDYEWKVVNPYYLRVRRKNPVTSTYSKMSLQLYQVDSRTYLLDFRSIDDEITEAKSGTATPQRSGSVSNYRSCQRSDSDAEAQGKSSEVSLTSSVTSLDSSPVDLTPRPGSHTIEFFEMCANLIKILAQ
RPS6KA1, sequence (Q15418 whole entry): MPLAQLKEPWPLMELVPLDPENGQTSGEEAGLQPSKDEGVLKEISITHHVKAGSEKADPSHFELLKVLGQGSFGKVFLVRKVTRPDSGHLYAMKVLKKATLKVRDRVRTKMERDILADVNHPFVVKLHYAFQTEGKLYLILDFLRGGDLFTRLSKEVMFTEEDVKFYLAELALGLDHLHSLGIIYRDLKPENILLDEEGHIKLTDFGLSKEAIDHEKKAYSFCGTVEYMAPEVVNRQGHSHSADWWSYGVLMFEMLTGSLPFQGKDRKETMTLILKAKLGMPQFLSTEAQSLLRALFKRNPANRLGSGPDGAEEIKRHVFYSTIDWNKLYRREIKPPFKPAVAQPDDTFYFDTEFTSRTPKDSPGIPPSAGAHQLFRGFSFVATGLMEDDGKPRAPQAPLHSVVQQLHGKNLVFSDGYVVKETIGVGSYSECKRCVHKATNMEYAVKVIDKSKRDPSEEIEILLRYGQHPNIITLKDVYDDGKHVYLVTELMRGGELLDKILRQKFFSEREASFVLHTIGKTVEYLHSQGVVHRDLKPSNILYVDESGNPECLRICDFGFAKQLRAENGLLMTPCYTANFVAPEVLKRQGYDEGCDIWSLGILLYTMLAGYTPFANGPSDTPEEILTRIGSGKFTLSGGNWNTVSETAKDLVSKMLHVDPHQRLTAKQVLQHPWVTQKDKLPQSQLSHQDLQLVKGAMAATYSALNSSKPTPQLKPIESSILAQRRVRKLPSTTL
MAPK6, sequence (Q16659 whole entry): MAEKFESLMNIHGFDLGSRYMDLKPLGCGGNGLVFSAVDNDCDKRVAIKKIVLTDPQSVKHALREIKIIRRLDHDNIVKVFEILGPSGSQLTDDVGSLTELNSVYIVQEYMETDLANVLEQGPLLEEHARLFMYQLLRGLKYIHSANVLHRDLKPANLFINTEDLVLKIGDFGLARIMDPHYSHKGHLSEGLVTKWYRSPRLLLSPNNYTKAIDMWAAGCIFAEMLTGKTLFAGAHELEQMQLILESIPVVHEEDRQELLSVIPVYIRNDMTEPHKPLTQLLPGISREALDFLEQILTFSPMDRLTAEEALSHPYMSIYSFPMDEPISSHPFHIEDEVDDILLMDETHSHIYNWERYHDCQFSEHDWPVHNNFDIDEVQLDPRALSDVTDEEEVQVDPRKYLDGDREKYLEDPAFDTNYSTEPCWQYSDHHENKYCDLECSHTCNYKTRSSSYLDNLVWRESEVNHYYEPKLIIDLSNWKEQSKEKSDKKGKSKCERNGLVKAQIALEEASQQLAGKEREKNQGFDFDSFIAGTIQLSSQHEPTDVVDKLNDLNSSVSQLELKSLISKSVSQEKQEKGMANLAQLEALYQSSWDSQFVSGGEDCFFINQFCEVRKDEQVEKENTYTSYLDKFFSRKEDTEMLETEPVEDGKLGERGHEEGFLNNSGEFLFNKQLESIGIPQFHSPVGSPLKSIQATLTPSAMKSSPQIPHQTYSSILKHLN
MINK1, sequence (Q8N4C8 whole entry): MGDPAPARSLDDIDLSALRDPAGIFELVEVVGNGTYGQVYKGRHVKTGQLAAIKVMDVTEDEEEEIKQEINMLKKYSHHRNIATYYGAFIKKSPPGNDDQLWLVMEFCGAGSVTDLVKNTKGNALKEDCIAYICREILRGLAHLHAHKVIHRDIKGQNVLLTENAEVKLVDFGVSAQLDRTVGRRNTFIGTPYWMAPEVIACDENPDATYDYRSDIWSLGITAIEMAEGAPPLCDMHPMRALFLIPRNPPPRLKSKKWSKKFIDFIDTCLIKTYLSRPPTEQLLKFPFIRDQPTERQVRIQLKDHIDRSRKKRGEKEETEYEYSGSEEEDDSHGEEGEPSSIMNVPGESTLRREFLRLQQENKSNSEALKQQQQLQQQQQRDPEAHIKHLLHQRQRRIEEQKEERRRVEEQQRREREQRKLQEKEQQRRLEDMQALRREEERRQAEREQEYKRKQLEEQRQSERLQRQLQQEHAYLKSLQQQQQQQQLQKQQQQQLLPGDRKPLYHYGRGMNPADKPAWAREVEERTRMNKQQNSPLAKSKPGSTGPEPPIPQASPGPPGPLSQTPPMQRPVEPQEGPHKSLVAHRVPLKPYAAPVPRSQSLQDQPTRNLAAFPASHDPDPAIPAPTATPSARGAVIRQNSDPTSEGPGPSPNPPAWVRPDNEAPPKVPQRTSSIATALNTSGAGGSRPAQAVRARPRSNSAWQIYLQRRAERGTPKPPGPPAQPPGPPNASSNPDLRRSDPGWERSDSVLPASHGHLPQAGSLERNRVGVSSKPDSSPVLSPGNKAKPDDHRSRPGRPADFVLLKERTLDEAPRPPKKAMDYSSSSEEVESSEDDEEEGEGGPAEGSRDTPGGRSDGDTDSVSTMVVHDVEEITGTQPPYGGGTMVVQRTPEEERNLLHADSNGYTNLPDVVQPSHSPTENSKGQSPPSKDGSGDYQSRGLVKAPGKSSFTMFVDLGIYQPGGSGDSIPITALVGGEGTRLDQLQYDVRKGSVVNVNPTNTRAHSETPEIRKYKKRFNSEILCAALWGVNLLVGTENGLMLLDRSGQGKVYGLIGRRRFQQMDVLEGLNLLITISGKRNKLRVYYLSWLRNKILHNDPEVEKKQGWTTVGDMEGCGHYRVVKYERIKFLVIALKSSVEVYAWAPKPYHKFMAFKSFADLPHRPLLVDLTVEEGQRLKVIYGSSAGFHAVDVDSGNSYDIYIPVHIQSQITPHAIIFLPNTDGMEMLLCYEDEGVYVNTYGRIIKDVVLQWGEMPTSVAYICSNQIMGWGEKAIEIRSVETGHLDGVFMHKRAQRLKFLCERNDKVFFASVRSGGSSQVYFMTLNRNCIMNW
BMPR1A, sequence (P36894 whole entry): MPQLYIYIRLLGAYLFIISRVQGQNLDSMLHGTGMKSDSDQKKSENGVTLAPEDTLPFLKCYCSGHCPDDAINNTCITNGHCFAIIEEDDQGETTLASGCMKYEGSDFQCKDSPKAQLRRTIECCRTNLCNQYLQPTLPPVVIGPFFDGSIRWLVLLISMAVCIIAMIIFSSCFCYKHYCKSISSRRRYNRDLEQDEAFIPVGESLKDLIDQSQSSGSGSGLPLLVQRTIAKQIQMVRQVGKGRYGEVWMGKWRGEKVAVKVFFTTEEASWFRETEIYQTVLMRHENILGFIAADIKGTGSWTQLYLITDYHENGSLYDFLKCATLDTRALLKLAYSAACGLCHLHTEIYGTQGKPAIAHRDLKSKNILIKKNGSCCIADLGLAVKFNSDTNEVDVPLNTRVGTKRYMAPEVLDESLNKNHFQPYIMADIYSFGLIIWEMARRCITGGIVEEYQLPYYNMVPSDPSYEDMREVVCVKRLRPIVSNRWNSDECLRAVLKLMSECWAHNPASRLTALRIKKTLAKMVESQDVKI

For `CN1CCN(c2ccc(Nc3ncc(C#N)c(Nc4ccccc4C(N)=O)n3)cc2)CC1.Cl` [TCMDC-134116], the concentration for half-maximal inhibition (IC50) was 0.15 µM on RPS6KA1; 0.038 µM and 0.049 µM at PRKAA1; 0.29 µM at MINK1; 1.8 µM at IKBKE; 0.16 µM at ULK1; 0.97 µM and 1 µM against PIP4K2C.

On to `Cl.NCC1(c2nc(-c3ccc(Cl)c(O)c3)c(-c3ccncc3)[nH]2)CCCCC1` [TCMDC-141154], for which the IC50 on RPS6KA1 was greater than 20 µM; against MINK1, 1.4 µM; on ULK1, greater than 20 µM; against MAPKAPK5 it was greater than 20 µM; against BMPR1A, greater than 20 µM; against PIP4K2C it was greater than 20 µM. At MAPK6, this compound showed an IC50 greater than 20 µM.

With `CN(C)CC(O)COc1ccc(Nc2ncc([N+](=O)[O-])c(Nc3ccccc3O)n2)cc1.O=C(O)C(F)(F)F` (stereo not drawn) [TCMDC-141399], the IC50 against PRKAA1 is 7.1 µM and 7.7 µM; against IKBKE, greater than 20 µM; on MAPKAPK5, 0.32 µM; on BMPR1A, greater than 20 µM; against MAPK6 it was 0.32 µM.

For the origin of these results see article PMC4774911, “Biochemical Screening of Five Protein Kinases from Plasmodium falciparum against 14,000 Cell-Active Compounds” (PLoS ONE, 2016).
